This is an account of results in US7842710B2, “Carboxamides” (Bayer Cropscience AG, priority 2004, dated 2010).

The test system of the first data set is Puccinia recondita. Description: Puccinia test (wheat)/protective. Format: in vivo. Conditions: 240 h, protective, application rate 500 g/ha, evaluation ten days after inoculation, 0% = control, 100% = no infestation, read-out: Degree of effectiveness in %. How it is done:
[table] To produce an appropriate active ingredient preparation, one part by weight of the active substance is mixed with the specified quantities of solvent and emulsifying agent, and the concentrate is diluted with water to the desired concentration. Young plants are sprayed with the active ingredient preparation at the specified application rate to test the effectiveness of protection. After the sprayed coating has dried, the plants are sprayed with a conidia suspension of Puccinia recondita. The plants are kept in an incubator at 20° C. and 100% relatively humidity for 48 hours. Then the plants are placed in a greenhouse at a temperature of about 20° C. and a relatively humidity of 80%, in order to promote the development of rust spots. The evaluation is performed ten days after the inoculation. A degree of effectiveness rating of 0% corresponds to the control, with 100% indicating no infestation observed.
Consider `Cc1nn(C)c(F)c1C(=O)Nc1ccccc1C(C)OC(C)C` (stereo not drawn), for which the pest or weed control at 500 g/ha came to 100%.
Same read-out and setting: in the case of `CCC(C)SC(C)c1ccccc1NC(=O)c1sccc1C` (stereo not drawn) it was 100%.
`CC(C)SC(C)c1ccccc1NC(=O)c1c(C(F)(F)F)nn(C)c1F` (stereo not drawn): the pest or weed control at 500 g/ha worked out at 96%.
The same measure, in the same setting: for `Cc1nn(C)c(Cl)c1C(=O)Nc1ccccc1C(C)SC(C)C` (stereo not drawn) the value was 100%; for `CCCC(C)SC(C)c1ccccc1NC(=O)c1c(C)nn(C)c1Cl` (stereo not drawn), 100%; for `Cc1nn(C)c(Cl)c1C(=O)Nc1ccccc1C(C)SC1CCCC1` (stereo not drawn), 100%.
Still for that read-out and setting: in the case of `CC(C)SC(C)c1ccccc1NC(=O)c1cn(C)nc1C(F)(F)F` (stereo not drawn) [drawing 494] it was 100%; in that of `Cc1nc(C(F)F)c(C(=O)Nc2ccccc2CSC(C)C)s1` [drawing 495], 93%.
Still for that read-out and setting: for `CCCC(C)SC(C)c1ccccc1NC(=O)c1sc(C)nc1C(F)(F)F` (stereo not drawn) [drawing 496] the value was 100%; for `CCC(C)SC(C)c1ccccc1NC(=O)c1c(C)nn(C)c1F` (stereo not drawn) [drawing 497], 100%.
In the case of `CCC(C)SC(C)c1ccccc1NC(=O)c1cn(C)nc1C(F)(F)F` (stereo not drawn) [drawing 498], the pest or weed control at 500 g/ha came out at 100%.
With `CC(C)OC(C)c1ccccc1NC(=O)c1cn(C)nc1C(F)F` (stereo not drawn) [drawing 499], the pest or weed control at 500 g/ha was found to be 100%.
With `CC(C)OC(C)c1ccccc1NC(=O)c1cn(C)nc1C(F)(F)F` (stereo not drawn) [drawing 500], the pest or weed control at 500 g/ha was determined as 100%.
Same read-out and setting: for `Cc1nn(C)c(F)c1C(=O)Nc1ccccc1C(C)SC(C)C` (stereo not drawn) [drawing 502] the value was 100%; for `CCC(C)SC(C)c1ccccc1NC(=O)c1cn(C)nc1C` (stereo not drawn) [drawing 504], 100%; for `CCC(C)SC(C)c1ccccc1NC(=O)c1sc(C)nc1C(F)F` (stereo not drawn) [drawing 505], 100%.
Still for that read-out and setting: for `CCCC(C)SC(C)c1ccccc1NC(=O)c1sc(C)nc1C(F)F` (stereo not drawn) [drawing 506] the value was 100%; for `CCC(C)SC(C)c1ccccc1NC(=O)c1cn(C)nc1C(F)F` (stereo not drawn) [drawing 507], 100%.
Same read-out and setting: in the case of `CCC(C)SC(C)c1ccccc1NC(=O)C1=C(C)OCCS1` (stereo not drawn) [drawing 508] it was 100%; in that of `CC1=C(C(=O)Nc2ccccc2C(C)SC(C)C)SCCO1` (stereo not drawn) [drawing 509], 100%; in that of `CC(C)SC(C)c1ccccc1NC(=O)c1cn(C)cc1C(F)(F)F` (stereo not drawn) [drawing 510], 100%.

In a further data set the test system is Podosphaera leucotricha. Description: Podosphaera test (apple)/protective. The format is in vivo. To be noted: protective, application rate 100 g/ha, evaluation ten days after inoculation, 0% = control, 100% = no infestation. How it is done:
(§1) [table] To produce an appropriate active ingredient preparation, one part by weight of the active substance is mixed with the specified quantities of solvent and emulsifying agent, and the concentrate is diluted with water to the desired concentration. Young plants are sprayed with the active ingredient preparation at the specified application rate to test the effectiveness of protection. After the sprayed coating has dried, the plants are inoculated with an aqueous spore suspension of the apple mildew pathogen Podosphaera leucotricha. Then the plants are placed in the greenhouse at about 23° C. with relative humidity of about 70%. The evaluation is performed ten days after the inoculation. A degree of effectiveness rating of 0% corresponds to the control, with 100% indicating no infestation observed.
As for `Cc1nn(C)c(F)c1C(=O)Nc1ccccc1C(C)SC(C)C` (stereo not drawn) [drawing 482], the “Degree of effectiveness in %” value stood at 91%.
Same read-out and setting: for `CC(C)SC(C)c1ccccc1NC(=O)c1cn(C)nc1C(F)F` (stereo not drawn) [drawing 483] the value was 84%; for `CCC(C)SC(C)c1ccccc1NC(=O)c1cn(C)nc1C(F)F` (stereo not drawn) [drawing 484], 94%.

Test system in another data set: not listed separately
Description: logP determination by HPLC on a reverse phase column (C18), EEC Directive 79/831 Annex V.A8. To be noted: pH 2 as printed, HPLC C18, 43° C. The format is physicochemical.
Regarding `CC(C)S(=O)(=O)C(C)c1ccccc1[N+](=O)[O-]` (stereo not drawn) [VII-4, 1-[1-(isopropylsulfonyl)ethyl]-2-nitrobenzene], the chromatographic logP (as a rule, a lipophilicity value derived from retention on a column) worked out at 1.99.

Test system in another data set: not listed separately
Described as above. The format is physicochemical. To be noted: HPLC C18, 43° C., Table 1. How it is done:
The specified logP values are determined by HPLC on a reverse phase column (C18) in accordance with EEC Directive 79/831 Annex V.A8. Temperature: 43° C. Eluents for the measurement in the acid range (pH 2.3): 0.1% aqueous phosphoric acid, acetonitrile; linearer gradient of 10% acetonitrile to 90% acetonitrile. Calibration is performed with unbranched alkyl-2-ones (with 3 to 16 carbon atoms) with known logP values (determination of the logP values based on retention times by linear interpolation between two sequential alkyl ketones).
With `CC(C)OC(C)c1ccccc1NC(=O)c1cn(C)cc1C(F)(F)F` (stereo not drawn) [compound 138], the “logP (pH 2.3)” value is reported as 5.60.
As to `Cn1cc(C(=O)Nc2ccccc2CO)c(C(F)(F)F)n1` [compound 178], the “logP (pH 2.3)” value was 1.61.

The test system of a further data set is Alternaria solani. Description: Alternaria test (tomato)/protective. To be noted: protective, application rate 750 g/ha, evaluation seven days after inoculation, 0% = control, 100% = no infestation. The format is in vivo. On the procedure:
[table] To produce an appropriate active ingredient preparation, one part by weight of the active substance is mixed with the specified quantities of solvent and emulsifying agent, and the concentrate is diluted with water to the desired concentration. Young tomato plants are sprayed with the active ingredient preparation at the specified application rate to test the effectiveness of protection. One day after treatment, the plants are inoculated with a spore suspension of Alternaria solani and are kept for 24 hours at 100% relatively humidity and 20° C. Subsequently, the plants are kept at 96% relatively humidity and a temperature of 20° C. The evaluation is performed seven days after the inoculation. A degree of effectiveness rating of 0% corresponds to the control, with 100% indicating no infestation observed.
Regarding `CC(C)OCc1ccccc1NC(=O)c1cn(C)nc1C(F)(F)F` [drawing 515], the “Degree of effectiveness in %” value turned out to be 95%.
Still for that read-out and setting: in the case of `Cc1nn(C)c(F)c1C(=O)Nc1ccccc1C(C)SC(C)C` (stereo not drawn) [drawing 516] it was 90%.
On the same count and under the same terms, for `CCC(C)SC(C)c1ccccc1NC(=O)c1c(C)nn(C)c1F` (stereo not drawn) [drawing 517] the value was 95%.

The test system of another data set is Venturia inaequalis. Description: Venturia test (apple)/protective. Format: in vivo. To be noted: protective, application rate 100 g/ha, evaluation ten days after inoculation, 0% = control, 100% = no infestation. How it is done:
as §1, with “conidia” for “spore”, “scab” for “mildew”, “Venturia inaequalis and are then kept in an incubator at 20° C. and 100% relatively humidity for one day.” for “Podosphaera leucotricha.”, “21°” for “23°”, “90%.” for “70%.”
In the case of `Cc1nn(C)c(F)c1C(=O)Nc1ccccc1C(C)SC(C)C` (stereo not drawn) [drawing 485], the “Degree of effectiveness in %” value turned out to be 95%.
The same measure, in the same setting: for `CCCC(C)SC(C)c1ccccc1NC(=O)c1sc(C)nc1C(F)(F)F` (stereo not drawn) [drawing 486] the value was 89%; for `CCC(C)SC(C)c1ccccc1NC(=O)c1cn(C)nc1C(F)F` (stereo not drawn) [drawing 487], 99%.

In the next data set the test system is Botrytis cinerea. Description: Botrytis test (bean)/protective. Format: in vivo. Conditions: protective, application rate 500 g/ha, evaluation two days after inoculation, 0% = control, 100% = no infestation. On the procedure: [table] To produce an appropriate active ingredient preparation, one part by weight of the active substance is mixed with the specified quantities of solvent and emulsifying agent, and the concentrate is diluted with water to the desired concentration. Young plants are sprayed with the active ingredient preparation at the specified application rate to test the effectiveness of protection. After the sprayed coating has dried, two small pieces of agar with cultured Botrytis cinerea are placed on each leaf. The inoculated plants are placed in a darkened chamber at about 20° C. and 100% relatively humidity. Two days after the inoculation, the size of the infestation spots on the leaves is evaluated. A degree of effectiveness rating of 0% corresponds to the control, with 100% indicating no infestation observed.
On to `CC(C)SC(C)c1ccccc1NC(=O)c1cn(C)nc1C(F)(F)F` (stereo not drawn) [drawing 488], for which the “Degree of effectiveness in %” value came out at 84%.
The same measure, in the same setting: in the case of `CC(C)SC(C)c1ccccc1NC(=O)c1cn(C)nc1C(F)F` (stereo not drawn) [drawing 489] it was 100%; in that of `CCCC(C)SC(C)c1ccccc1NC(=O)c1sc(C)nc1C(F)(F)F` (stereo not drawn) [drawing 490], 99%.
For the compound `CCC(C)SC(C)c1ccccc1NC(=O)c1cn(C)nc1C(F)(F)F` (stereo not drawn) [drawing 491], the “Degree of effectiveness in %” value came out at 100%.
On the same count and under the same terms, in the case of `CCCC(C)SC(C)c1ccccc1NC(=O)c1cn(C)nc1C(F)F` (stereo not drawn) [drawing 492] it was 97%; in that of `CC(C)SC(C)c1ccccc1NC(=O)c1cn(C)cc1C(F)(F)F` (stereo not drawn) [drawing 493], 97%.
